Test results from patent US5478828A, “Piperazinyl-and piperidinyl-cyclohexanols” (Bristol-Myers Squibb Company, priority 1995, dated 1995).

Legend:
[1] = system: rat social interaction task (anxiety); assay: Rat social interaction task (in vivo model of anxiety); details: given subcutaneously
5-HT1A receptor = assay: In vitro receptor binding, 5-HT1A
Protocol: In vitro IC50 test values for binding to the 5-HT1A receptor were determined for representative compounds of Formula I by the method of S. J. Peroutka, Brain Research 344, 167 (1985); with only minor modifications. Test IC50 values lower than 100 nM are considered to reflect activity at the 5-HT1A receptor.

Compound: O[C@]1(c2ccc(F)cc2)CC[C@H](N2CCN(Cc3cc(F)ccc3F)CC2)CC1 [Example 36, Z-1-(4-Fluorophenyl)-4-[4-[(2,5-difluorophenyl)methyl]-1-piperazinyl]cyclohexanol]
- Rat social interaction task, active doses [1]: 0.01-10 mpk
- IC50 (5-HT1A receptor): 34.7 nM
